Marks after values point to notes of the source that are not given here.

Data set [1] relates to tail bleeding. Description: Tail bleeding time during thrombosis experiment. The format is in vivo, rats. To be noted: for Tail bleeding time, %: control = 100. The protocol:
Additionally during the thrombosis experiment rat tail bleeding time was measured. The tail was transected 5 mm from the tip with scalpel and the tail was immediately immersed into 37° C. warm isotonic saline until termination of bleeding was noted. Termination of bleeding was defined as the time of complete stop of bleeding with no recurrence of bleeding within the next 30 s.

In data set [2] the test system is serum lipid levels (C, HDL, LDL, TG). Description: Acute hyperlipidemia model (Triton WR1339). The format is in vivo, Wistar rats. The settings on record: serum 24 h. The protocol: Male Wistar rats with body mass of 250-270 g were used. Animals were held in groups of 6-8 in climatized rooms at 22±1° C., relative humidity 60±5%, and 12/12-hour light/dark cycle with free access to water and feed. […] The solution of test substances or water was introduced to control and TR group animals p.o. one hour before and 20 hours after the introduction of TR as described below.
Blood for biochemical analysis was collected on the next day (24 hours after the injection of TR) by heart punction under ether narcosis. Serum was separated by centrifugation and analyzed for total cholesterol, HDL, LDL and TG levels by commercial kits.

For data set [3], the system named is abdominal constrictions in writhing test model. Put plainly: Mouse writhing test (acetic acid i.p.). The format is in vivo, mice. The protocol: In investigating the analgesic, anti-inflammatory and antipyretic effects of MASA methods widely used in evaluation of NSAIDs were employed. Mongrel white laboratory mice and Wistar rats were used in experiments. Animals were kept in groups of 7-8 in adequate cages in climatized rooms at 22±1° C., relative humidity 60±5% and 12/12-hour light/darkness cycle with free access to feed and water.
Aqueous solutions of test substances were prepared ex tempore. In each experimental series a control group was used that received an identical volume of water p.o.
Nociceptive reaction was evaluated by chemical irritation method—writhing test (Charaborty A et al, Indian J of Pharmacology 2004; 36(3):148-150). Animals received i.p. 0.25 ml of 0.75% aqueous acetic acid solution: After the injection animals were placed separately in special boxes and observed for 10 minutes. The number of abdominal constrictions was registered. Analgesic activity was manifested by reduction of the number of abdominal constrictions in the 10 minutes period. Test substances were introduced 30 min before the irritating agent. The level of analgesia was expressed as analgesic index calculated as follows: A=(Cc−Ct)/Cc·100%, where A—Analgesic index Cc—number of contractions in control group, Ct—number of contractions in the test group.
In general terms: An intraperitoneal irritant provokes the stretching counted in writhing tests.

Data set [4] relates to carrageneen paw oedema. Put plainly: Carrageneen oedema, preventive mode. The format is in vivo, rats. The settings on record: 50 mg/kg p.o., preventive 6 times; 4 h. The procedure: The […] oedema was investigated by established method ([…], Patol Fiziol Eksp Ter, 2002(2):24-7 (Rus) on 42 rats with body mass of 178-220 g: […] The prevention index was calculated as indicated in previous section.

Data set [5] deals with response to thermal irritation (hot plate). Description: Mouse hot plate test. The format is in vivo, mice. To be noted: 50 mg/kg p.o. For orientation: Thermal pain tests record how soon the animal reacts.
The test system of data set [6] is carrageneen paw oedema. Description: Acute inflammatory oedema model (carrageneen test). The format is in vivo, rats. The settings on record: 100 mg/kg p.o. 30 min after carrageneen; 4 h. The procedure: Experiments were conducted using carrageneen test (Winter C et al, Proc Soc Exptl Biol and Med 1962; III(3):544-547. Wei Jia et al, Journal of Ethnopharmacology 2003(89):139-141; Sutharson Lingadurai et al, African Journal of traditional, complementary and alternative medicines, 2007, 4(4):411-416) on 42 rats with body mass of 226-274 g. Single injection of carrageneen (Sigma) solution (1%) in saline (0.1 ml) was introduced in rat hind leg paw. Test substances were introduced p.o. (through catheter into rat stomach) 30 min. after the injection of carrageneen. The volume of paw was measured by oncometer at baseline and 4 hours after the injection of carrageneen.
The percentage of prevention (inhibition of oedema) was calculated according to formula: P(%)=(1−Vo/Vc)×100, where P—Prevention in % (inhibition of oedema) Vo—difference between the paw volume at baseline and at experimental conditions; Vc—analogical difference in control group.

The test system of data set [7] is rat ear skin temperature. Put plainly: Ear skin temperature rise caused by NA, p.o. administration. The format is in vivo, Wistar rats. To be noted: NA 40 mg/kg p.o. The procedure: (§1) Male Wistar rats (280-330 g) were used. Animals were held in groups of 6 in climatized rooms at 22±1° C., relative humidity 60±5%, and 12/12-hour light/dark cycle with free access to drinking water and feed (R3—Lactamin AB, Sweden). For registration of changes in skin temperature of intact rats contactless temperature recording method was used (Papaliodis D et al, Br J Pharmacol 2008; 153:1382-1387). Temperature measurements were performed with a hand-held infrared thermometer (Model Proscan 510, TFA-Dostman). Animals were habituated to handling and to the infrared probe for 3 days before use. Temperature readings from the dorsal side of each ear were recorded without anaesthesia at beginning and during experiment. The ear temperature was measured every 5 min. for a period of up to 60 min. The animals were returned to their cages between measurements. NA, MD and MASA were dissolved in saline and pH was corrected immediately before usage. LA (MK 0524, Cayman Chemicals) was first dissolved in DMSO and then freshly diluted with 0.9% NaCl, on each day of the experiment. The rate of NA and LA combination was based on Summary of Product Characteristics for Tredaptive™ (nicotinic acid/laropiprant) 1000 mg/20 mg modified-release tablets.
9.2.3. Investigation of the Effect of MASA/NA and MD/NA Combination on Skin Temperature at Simultaneous or 45 Min Advance p.o. Administration

Data set [8] concerns rat ear skin temperature. Description: Ear skin temperature rise caused by NA, s.c. administration. The settings on record: NA 15 mg/kg s.c. The format is in vivo, Wistar rats. The procedure: as §1
The influence of LA, MD or MASA alone on skin temperature was checked. Each investigated compound was introduced s.c. simultaneously with NA as LA+NA [0] or 30 min in advance to NA as LA+NA [30].

[9] abbreviates: 5 mg/kg/d p.o., repeated, 3 days.

Turning to `CC(=O)Oc1ccccc1C(=O)O` [ASA, acetylsalicylic acid], in data set [1] (5 mg/kg p.o., single dose), the Tail bleeding time is recorded as 13.8 ± 3.27 min and the “Tail bleeding time, %” value was 155%. For the same compound, in data set [1] (setting [9]), the Tail bleeding time is 17.8 ± 3.17^1 min and the “Tail bleeding time, %” value is 207%. In data set [2] (45 mg/kg p.o. 1 h before and 20 h after TR 250 mg/kg), this compound came in with a C of 381.0 ± 30.3 mg/dL. Moreover, in data set [2] (45 mg/kg p.o., TR 250 mg/kg), the HDL was determined as 62.8 ± 10.9 mg/dL, the LDL is 307.4 ± 37.8 mg/dL and the TG worked out at 973 ± 82.7 mg/dL. In data set [2] (90 mg/kg p.o., TR 250 mg/kg), the C stood at 288.1 ± 23.5 mg/dL, the HDL came to 60.0 ± 7.4 mg/dL, the LDL was 219.1 ± 23.9 mg/dL and the TG was 791 ± 73.9 mg/dL. In addition, in data set [3] (50 mg/kg p.o.), the Analgesic index is reported as 7.1. Besides, in data set [3] (50 mg/kg p.o. 30 min before acetic acid), the “Animals with positive reaction/total number” value was 6/8. Moreover, the No. of constrictions in data set [3] (50 mg/kg p.o., 10 min observation) is on record as 5.75 ± 1.32***^$$$. Besides, in data set [4], the “Reduction in % (oedema)” value is on record as 70% and the “Volume of paw after injection of carrageneen” value is 1.55 ± 0.04 mL. Moreover, in data set [5], the “Latent period at 30 min after introduction of test substance” value came out at 5.4 ± 0.46 s and the “Latent period at 60 min after introduction of test substance” value worked out at 9.7 ± 1.05 s. Also, in data set [6], the “Index, % (inhibition of oedema)” value stood at 66% and the “Volume of paw after injection of carrageneen” value amounted to 1.97 ± 0.10 mL.

With `O=C(O)c1cccnc1` [NA, nicotinic acid], in data set [1] (25 mg/kg p.o., single dose), the Tail bleeding time worked out at 11.5 ± 1.39 min and the “Tail bleeding time, %” value came to 129%. In data set [2] (50 mg/kg p.o., TR 250 mg/kg), this compound came in with a C of 327.5 ± 38.4 mg/dL, an HDL of 66.5 ± 14.6 mg/dL, an LDL of 246.3 ± 32.5 mg/dL and a TG of 591 ± 43.3 mg/dL. Also, in data set [7], the “Temp. 15 min” value is 32.3 ± 0.46 °C, the “Temp. 30 min” value was found to be 33.1 ± 0.41 °C and the “Temp. 45 min” value stood at 32.4 ± 0.48 °C. The Max incr. % in data set [7] (NA alone = 100) is recorded as 100%. For the same compound, the Maximum temperature in data set [8] stood at 32.2 ± 0.42 °C. Besides, in data set [8] (at 10 min), the “maximal temperature increase from baseline” value is 2.32±0.37 °C and the “maximal temperature increase in comparison with Solvent group” value is reported as 2.57±0.43. Moreover, in data set [8] (effect of NA = 100), the “Increase, %” value is 100%.

Source of the values: patent US8889902B2, “Acetylsalicylic acid salts” (priority 2009, dated 2014).
